Laboratory results from ChEMBL document CHEMBL1201862, “PubChem BioAssay data set” (2004).
Active and inactive are the calls of the source.

What was measured:
[1] = biological target: Peroxisome proliferator-activated receptor gamma/Nuclear receptor coactivator 3 (Homo sapiens, UniProt P37231); format: functional;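 note: agonist potency for raising coactivator recruitment to the receptor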
[2] = biological target: Peroxisome proliferator-activated receptor gamma/Nuclear receptor coactivator 1 (Homo sapiens, UniProt P37231); format: functional;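 note: agonist potency as compounds enhance coactivator SRC-1 recruitment to PPARgamma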
[3] = biological target: Peroxisome proliferator-activated receptor gamma/Nuclear receptor coactivator 2 (Homo sapiens, UniProt P37231); format: functional;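 note: agonist potency for raising coactivator recruitment to the receptor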
[4] = biological target: T1, Microphthalmia-associated transcription factor (Homo sapiens, UniProt O75030); experiment: TRPM1 promoter luciferase signal decrease, dose response, MITF inhibitor project, cell-based, SK-MEL-5, cherry-picked, set 3 (AID 493073); format: functional
T1 sequence (O75030 whole entry): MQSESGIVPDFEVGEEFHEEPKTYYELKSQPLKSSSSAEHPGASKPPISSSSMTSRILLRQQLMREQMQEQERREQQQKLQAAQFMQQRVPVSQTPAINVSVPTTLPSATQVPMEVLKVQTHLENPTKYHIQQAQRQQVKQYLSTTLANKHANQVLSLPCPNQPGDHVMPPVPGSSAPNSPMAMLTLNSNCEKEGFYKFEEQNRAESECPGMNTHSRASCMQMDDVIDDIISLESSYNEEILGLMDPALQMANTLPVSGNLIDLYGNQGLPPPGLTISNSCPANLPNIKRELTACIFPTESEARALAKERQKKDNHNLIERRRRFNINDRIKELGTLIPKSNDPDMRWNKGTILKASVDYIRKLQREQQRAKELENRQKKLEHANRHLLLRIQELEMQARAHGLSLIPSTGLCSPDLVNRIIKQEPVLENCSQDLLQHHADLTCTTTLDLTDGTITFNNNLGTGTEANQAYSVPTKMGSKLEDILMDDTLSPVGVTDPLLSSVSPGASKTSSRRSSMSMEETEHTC

[5] = control 3'UTR Renilla luciferase suppression, dose response, counter-screen for Shn3 inhibitor project, cell-based, Clone20-Shn3RL, cherry-picked (AID 624133); format: functional
[6] = Shn3 3'UTR reporter inhibitors, dose response, cell-based, Clone20 osteoblasts, firefly luciferase, cherry-picked (AID 624132); format: functional;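 note: firefly luciferase luminescence from reporter carrying the Shn3 3'UTR in osteoblasts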
[7] = HepG2 cell cytotoxicity, dose response, cytotoxicity control for Shn3 inhibitor project, CellTiter-Glo, cherry-picked (AID 624134); format: functional, cell-based
Genome polyprotein = Genome polyprotein (dengue virus type 2, UniProt P29990); experiment: Dengue-2 NS5 methyltransferase inhibitors, primary screen, biochemical, confirmation dose response (AID 588689); format: functional
[8] = biological target: Heat shock protein HSP 90-alpha (Homo sapiens, UniProt P07900); format: functional, organism-based
Prothrombin = Prothrombin (Homo sapiens, UniProt P00734); experiment: Thrombin 1536 HTS Dose Response Confirmation. [Related pubchem assays: 1046 (Thrombin 1536 HTS; hits were confirmed in this assay)]; format: functional
[9] = biological target: T2, Corticotropin-releasing factor receptor 2/Corticotropin-releasing factor-binding protein (Homo sapiens, UniProt P24387+Q13324); experiment: activators of CRF receptor 2 with binding protein – uHTS hits, confirmation (AID 602473); format: functional; conditions: read-out: EC50_Mean
T2 sequence (Q13324 whole entry): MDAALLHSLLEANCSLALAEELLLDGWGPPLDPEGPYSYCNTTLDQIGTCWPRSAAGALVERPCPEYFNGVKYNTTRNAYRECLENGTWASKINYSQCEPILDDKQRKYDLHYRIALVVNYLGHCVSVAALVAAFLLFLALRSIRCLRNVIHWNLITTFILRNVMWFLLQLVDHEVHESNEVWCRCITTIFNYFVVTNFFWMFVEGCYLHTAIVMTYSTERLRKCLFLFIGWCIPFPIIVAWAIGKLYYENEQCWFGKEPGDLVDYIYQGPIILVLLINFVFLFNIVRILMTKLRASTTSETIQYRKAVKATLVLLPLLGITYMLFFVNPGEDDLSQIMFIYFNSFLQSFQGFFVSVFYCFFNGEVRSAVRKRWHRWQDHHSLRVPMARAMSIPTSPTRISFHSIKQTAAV
T2 sequence (P24387 whole entry): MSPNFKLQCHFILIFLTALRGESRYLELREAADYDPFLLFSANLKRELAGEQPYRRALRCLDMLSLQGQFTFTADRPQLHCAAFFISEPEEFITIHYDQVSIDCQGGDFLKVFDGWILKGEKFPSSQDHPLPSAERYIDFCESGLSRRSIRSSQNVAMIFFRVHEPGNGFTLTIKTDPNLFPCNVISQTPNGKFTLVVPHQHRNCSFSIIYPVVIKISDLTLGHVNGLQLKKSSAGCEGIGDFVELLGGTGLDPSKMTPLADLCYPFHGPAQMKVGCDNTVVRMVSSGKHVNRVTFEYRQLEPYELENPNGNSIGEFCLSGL

Q: What does the source list for `CCN(CC)c1ccc(/C=N/c2cc(C)ccc2C)c(O)c1`?
A: EC50 [1]: > 79.4 µM (not active); EC50 [2]: > 79.4 µM (not active); EC50 [3]: > 79.4 µM (not active)

Q: Which AC50 [4] does the source give for `Cn1cccc1C(=O)NC(=O)COC(=O)c1ccc(S(C)(=O)=O)c([N+](=O)[O-])c1` here?
A: 9.23 µM (active)

Q: What about the AC50 [5] of the same compound?
A: 13.6 µM (active)

Q: What about the AC50 [6] of the same compound?
A: 15.1 µM (active)

Q: What about the AC50 [7] of the same compound?
A: 26 µM (active)

Q: For `O=C(Nc1ccccc1C(=O)O)c1cccc(C(=O)Nc2ccccc2C(=O)O)c1`, which IC50 (Genome polyprotein) is on record?
A: 54.9 µM (active)

Q: For `COc1cccc(CNc2ncnc3cc(Cl)ccc23)c1`, which AC50 [5] is on record?
A: 5.85 µM (active)

Q: What about the AC50 [6] of the same compound?
A: 3.73 µM (active)

Q: And the AC50 [7]?
A: > 70 µM (inactive)

Q: What does the source list for `C=CCn1c(Cc2cccs2)nnc1SCC(=O)c1ccc(F)cc1`?
A: EC50 [1]: > 79.4 µM (not active); EC50 [2]: > 79.4 µM (not active); EC50 [3]: > 79.4 µM (not active)

Q: For `CN(C)/C=C/C(=O)c1ccc2noc(-c3ccccc3)c2c1`, which AC50 [8] is on record?
A: 2.51 µM (active)

Q: Which results are given for `Cc1ccc(C2C=C(c3ccccc3)Nc3nc(N4C(=O)CCC4=O)nn32)cc1` (configuration not stated)?
A: IC50 (Prothrombin): 10.9 µM (active); EC50 [9]: > 53 µM (inactive)
